Results reported in PMC5007443, “TNIK inhibition abrogates colorectal cancer stemness” (Nature Communications, 2016).

Columns and labels:
HCT116 cells = experiment: PARP-1 cleavage, immunoblotting; format: cell-based, human; conditions: HCT116, 1 μM, 24 or 48 h
Description: (§1) Protein samples were fractionated by SDS–PAGE and blotted onto Immobilon-P membranes (Millipore) as described previously. After incubation with the primary antibodies (listed in Supplementary Table 4) at 4 °C overnight, the blots were detected with the relevant horseradish peroxidase-conjugated anti-mouse or anti-rabbit IgG antibody (Cell Signaling Technology) and Western lighting ECL Pro (PerkinElmer). Signals were visualized with the LAS-4010 system (GE Healthcare). Uncropped versions of the blots in Figs 2e and 3f are shown in Supplementary Fig. 15.

PDX COX026 = experiment: Patient-derived xenograft COX026 in Nu/Nu nude mice; format: in vivo, mouse; conditions: COX026, NCB-0846 HCl oral 45 or 90 mg/kg BID, 5-day on, 2-day off
Description: Patient-derived colorectal cancer xenografts […] were established by Shanghai ChemPartner. Female Nu/Nu nude mice aged 5–6 weeks were implanted subcutaneously with the xenografts and randomized into three treatment groups (10 mice per group) based on the developed tumour volume (∼200 mm^3).
(§2) Tumour volume was estimated based on the formula: (length × width^2)/2. The tumour volume (twice a week) and body weight (every day) of each mouse were recorded. The patient-derived spheroids and xenografts were established after obtaining informed consent from the donors.

[1] = test system: TCF/LEF transcriptional activity of spheroid clone #6 Cl. 2; experiment: Spheroid TCF/LEF GFP reporter assay; format: cell-based; conditions: Homo sapiens, read-out: IC50, reduction of cells expressing Wnt-driven GFP
From the text: Lentiviral gene transfer of the reporter gene was used to evaluate the TCF/LEF transcriptional activity of patient-derived spheroids due to their poor transfection efficiency. Spheroids were infected with TCF/LEF reporter lentiviral particles encoding the green fluorescent protein (GFP) gene under the control of the TCF/LEF-responsive promoter (Cignal Lenti TCF/LEF Reporter (GFP) (Qiagen)) or relevant negative control lentiviral particles (Cignal Lenti negative control (GFP) (Qiagen)) at a multiplicity of infection of 10 in the presence of 4 μg ml^−1 SureEntry Transduction Reagent (Qiagen) for 24 h. GFP-positive spheroids were cloned by limiting dilution in the presence of 2 μg ml^−1 puromycin (Sigma-Aldrich; Fig. 6a,b).
GFP-positive cells were detected using the Guava easy Cyte HT flow cytometer (Fig. 6c). Experiments were performed in triplicate and repeated at least two times.

[2] = test system: patient-derived colon cancer spheroid #19 xenograft; experiment: Xenograft of patient-derived spheroid #19 in NOD/ShiJic-scid mice; format: in vivo, mouse; conditions: NCB-0846 HCl oral 50 or 100 mg kg−1 BID, 6-days-on, 1-day-off
From the text: Patient-derived colorectal cancer spheroids were dissociated, resuspended in medium containing 50% Matrigel (Corning), and inoculated subcutaneously (#6; 1 × 10^4 cells per injection, #19; 1 × 10^5 cells per injection) into the flank of female NOD/ShiJic-scid mice (4-week-old females; CLEA Japan). When the tumour volume reached ∼200 mm^3, the mice were randomized according tumour volume (10 mice per group) and treatment was started.
as §2

HCT116 xenografts = experiment: HCT116 xenograft growth in BALB/c-nu/nu mice; format: in vivo, mouse; conditions: oral, 40 or 80 mg kg−1 BID, 14 days
Description: Five million HCT116 cells suspended in medium containing 25% Matrigel (BD Biosciences) were inoculated into the subcutaneous tissues of 9-week-old female BALB/c nude mice. When the tumour volume reached ∼80 mm^3, the mice were randomized according to tumour volume (9 mice per group).
as §2

[3] = test system: TNIK, AXIN2, c-MYC, LRP6, LRP5 proteins; experiment: Immunoblotting of TNIK, AXIN2, c-MYC, LRP6, LRP5 in HCT116 and DLD-1 cells; format: cell-based, human; conditions: HCT116 and DLD-1, 48 h
Description: as §1

O[C@H]1CC[C@@H](Oc2cccc3cnc(Nc4ccc5nc[nH]c5c4)nc23)CC1 [NCB-0846, cis-4-(2-(3H-benzo[d]imidazol-5-ylamino)quinazolin-8-yloxy)cyclohexanol] was tested, and the “Cleavage of PARP-1” value (HCT116 cells) was “induction of apoptosis”, the “growth of the PDXs” value (PDX COX026) was “significantly suppressed” and the IC50 [1] was 480 nM. The growth of tumours [2] was “suppressed”, the growth of tumours (HCT116 xenografts) was “suppressed” and the “LRP6 and LRP5 protein expression” value [3] was “downregulated”. For the same molecule, the “expression of TNIK, AXIN2 and cMYC at the protein level” value [3] was “reduced”.
